The target in this test is Neuronal acetylcholine receptor subunit alpha-7 (Homo sapiens, UniProt P36544). In words: Positive allosteric modulation of human alpha7 nAChR expressed in HEK cells assessed as potentiation of acetylcholine induced peak current amplitude preincubated for 58 secs followed by acetylcholine stimulation for 1 secs by automated patch-clamp electrophysiology. It counts as cell-based. A general note: The patch-clamp technique gives a direct electrical read-out from membranes.
Sequence of Neuronal acetylcholine receptor subunit alpha-7 (P36544 whole entry): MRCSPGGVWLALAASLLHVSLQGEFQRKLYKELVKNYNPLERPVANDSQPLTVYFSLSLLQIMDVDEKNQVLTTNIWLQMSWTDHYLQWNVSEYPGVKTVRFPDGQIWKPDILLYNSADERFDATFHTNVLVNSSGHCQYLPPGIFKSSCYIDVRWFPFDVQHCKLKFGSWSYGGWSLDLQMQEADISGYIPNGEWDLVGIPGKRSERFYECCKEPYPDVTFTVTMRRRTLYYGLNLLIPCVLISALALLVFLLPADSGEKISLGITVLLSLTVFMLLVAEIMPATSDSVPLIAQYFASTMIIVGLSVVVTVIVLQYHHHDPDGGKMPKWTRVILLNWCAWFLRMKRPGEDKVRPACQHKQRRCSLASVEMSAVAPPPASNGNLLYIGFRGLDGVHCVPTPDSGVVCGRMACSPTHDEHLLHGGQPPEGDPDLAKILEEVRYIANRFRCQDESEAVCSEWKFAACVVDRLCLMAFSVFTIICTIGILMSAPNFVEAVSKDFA
In general, EC50 refers to the concentration that produces a half-maximal response. Turning to `CCOc1ccc([C@H](COC)NC(=O)C2CC23CCCc2ccccc23)cc1` (some centres undefined), the 50% effective concentration (EC50) was 740 nM.

For `O=C(N[C@@H](CO)C1CCCCC1)C1CC12COc1ccc(F)cc12` (some centres undefined), the EC50 was 770 nM.

As to `O=C(NC1(c2ccc(F)cc2)COC1)C1CC12CCc1ccccc12` (centres undefined), the EC50 was determined as 3200 nM.

`O=C(N[C@@H](CO)C1CCCCC1)C1CC12COc1ccccc12` (some centres undefined): the EC50 was 630 nM.

On to `CCOc1ccc([C@H](COC)NC(=O)C2CC23CCc2cc(F)ccc23)cc1` (some centres undefined), for which the EC50 was found to be 590 nM.

`O=C(NC1(c2ccc(F)cc2)COC1)C1CC12CCc1ccc(F)cc12` (centres undefined): the EC50 was 820 nM.

For `CCOc1ccc([C@H](COC)NC(=O)C2CC23CCc2ccc(F)cc23)cc1` (some centres undefined), the 50% effective concentration (EC50) amounted to 700 nM.

Take `CCOc1ccc([C@H](CF)NC(=O)C2CC23COc2ccc(F)cc23)cn1` (some centres undefined): the EC50 came out at 790 nM.

With `CCOc1ccc([C@@H](NC(=O)C2CC23COc2ccc(F)cc23)C(F)F)cn1` (some centres undefined), the 50% effective concentration (EC50) is 3000 nM.

The values above are taken from ChEMBL document CHEMBL5357009, “Positive Allosteric Modulators of alpha7 Nicotinic Acetylcholine Receptor for the Treatment of Several Central Nervous System Diseases” (ACS Med Chem Lett, 2024).
